Results reported in patent US9849189B2, “Targeted delivery of antimicrobial agents” (George Mason Research Foundation, Inc., priority 2008, dated 2017).
Like-named read-outs stand apart in the source and are kept apart here. No end group written: not given here.

Columns and labels:
[1] = test system: K12 E. coli; format: cell-based
Experimental: The antimicrobial activities of the peptides and their acetylated derivatives may be assessed using K-12 E. coli and assays based on an existing protocol used to study derivatives of hBD-3. The bacteria may be grown to mid-log phase in Luria Bertani (LB) broth. Aliquots of the culture may then be diluted (to a cell density of about 10^6 CFU/ml) into 10 mM sodium phosphate at a pH of about 7.5. Each of the aliquots may contain varied concentrations of peptide or acetylated peptide. The diluted bacterial cultures may then be incubated for about 2 hours at a temperature of about 37° C. After the proscribed time, serial dilutions of the assay cultures may be plated onto LB agar plates, and then allowed to incubate overnight at a temperature of about 37° C. After incubating, colonies may be counted. Dose-response curves may be prepared to calculate EC50's.
The antibacterial activities of the free and acetylated peptides may be determined using K12 E. coli and a known assay protocol. Bacteria may be incubated in Luria Bertani broth at 37° C. until reaching an OD600 of ˜0.8-˜1.1. Cell density may be monitored using optical density at 600 nm. Cells were then diluted to a concentration of 10^6 CFU/ml in ˜10 mM sodium phosphate (pH ˜7.5), containing varied concentrations of peptide or acetylated peptide. Peptide concentration used in the assays may range from 0 μg/ml to ˜100 μg/ml with intermediate concentrations varied for each peptide in order to maximize the number of data points in or near the transition region.
Assay cultures may be incubated at 37° C. for about two hours. Afterwards, serial dilutions of each assay culture may be prepared and then plated in triplicate onto Luria Bertani broth plates. The plates may be incubated at 37° C. overnight (˜16 h). Colonies may be counted the following morning.
Bacterial survival at each peptide concentration may be calculated according to the ratio of the number of colonies on the plates corresponding to the peptide concentration and the average number of colonies observed for assay cultures lacking peptide. The peptide concentration required to kill ˜50% of tile viable E. coli in the assay cultures (EC50) may be determined by plotting percent survival as a function of the log of peptide concentration (log μg/ml) and fitting the data, using GraphPad Prism (GraphPad Software, Inc., San Diego, Calif.), to Equation (1), which describes a sigmoidal dose-response.
In Equation (1), S is percent survival, ST and SB represent the upper and lower survival boundaries, X is the log of the peptide concentration, and H is the Hill slope of the transition region.
In fitting the data for all peptides and acetylated peptides (except acetylated Pep-1 and acetylated Pep-3), ST and SB may be restricted to values≦100% and ≧0% respectively. For acetylated Pep-1 and acetylated Pep-3, the absence of data points defining the lower boundary necessitated that SB be set to 0% in order to fit the data to Equation (1) and provide an estimated EC50 for these peptides.

[2] = test system: E. coli BL21(DE3)
[3] = test system: horse erythrocytes; format: cell-based
Experimental: Hemolytic activity may be assayed by, for example, incubating horse erythrocytes (e.g., Hemasource Inc. of Eugene, Oreg.). Varied peptide concentrations in phosphate buffered saline (e.g., Cellgro, produced by Mediatech, Inc. of Manassas, Va.) may be used for the incubation process. Hemolysis may be quantified by pelleting cells after incubation using centrifugation, and then measuring the absorbance of the supernatant at about 540 nm.
Hemolytic activities of the free and acetylated peptides may be determined using horse erythrocytes, in an assay adapted to a microtitre plate format. Cells may be prepared by centrifuging ˜1 ml of horse erythrocytes at 1620×g, and then resuspending the pelleted cells in ˜1 ml of 1× Dulbecco's phosphate-buffered saline (Dulbecco's PBS, Mediatech, Manassas, Va.). The cells may then be pelleted again. The process may be repeated (e.g., three more times). Following the final wash, the cells may be resuspended in ˜0.750 ml of PBS. Approximately two hundred microliters of washed erythrocyte suspension may then be diluted into ˜9800 μl of PBS to afford about 2% suspension. Aliquots of sterile water, peptide, and Dulbecco's PBS may then be combined in the wells of a 96 well microtitre plate so as to provide a gradient of peptide concentrations (0, ˜0.1, ˜1, ˜10, ˜100, and ˜1,000 μg/ml), to which the ˜2% erythrocyte may be added. […] An aliquot of supernatant (˜150 μl) from each well may then be transferred to a fresh microtitre plate, and the absorbance at ˜540 nm (heme) may be obtained for each solution. The percent hemolysis may be calculated based on the ratio of the absorption of supernatants from wells containing peptide and the absorption of supernatants from wells containing no peptide. In both cases, the recorded absorption may be adjusted for the background absorption of the plates.
Results of these assays appear in FIG. 21. […] Absorbance at 540 nm was used to monitor the release of hemoglobin by horse erythrocytes that have been incubated with varied concentrations of free peptide or acetylated peptide.

[4] = acetylated peptide, K12 E. coli, 10 mM sodium phosphate pH ~7.5, 2 h 37° C., 90% confidence range in parentheses, ‡ estimated values

Row | Substance | antimicrobial potency as percent of free Pep-1 ([1]; K12 E. coli, from EC50 values) | hemolytic activity (in words) [3] | Antimicrobial Activity (EC50), Free ([1]; K12, 2 h) | other results
1 | Ac-RGRK(Ac)SSRRK(Ac)K(Ac)-NH2 [acetylated Pep-3] | – | – | – | Antimicrobial Activity (EC50), Acetylated [1, 4]: ~70 µg/mL
2 | Ac-RGRK(Ac)SSRRK(Ac)K(Ac)-OH [acetylated Pep-1] | ~5% | – | – | LC90, Acetylated Peptide [2]: 94.40 µg/mL; decrease in potency relative to free Pep-1 ([1]; K12 E. coli, from EC50 values): sixteen
3 | Ac-RGRRSSRRK(Ac)K(Ac)-NH2 [acetylated Pep-4] | ~50% | – | – | LC90, Acetylated Peptide [2]: 1.49 µg/mL; Antimicrobial Activity (EC50), Acetylated ([1]; K12, 2 h): 4.9 (4.2-5.8) μg/ml
4 | Ac-RGRRSSRRK(Ac)K(Ac)-OH [acetylated Pep-2] | ~25% | – | – | Antimicrobial Activity (EC50), Acetylated ([1]; K12, 2 h): ~8.1 µg/mL; Antimicrobial Activity (EC50), Acetylated [1, 4]: 8.1 (6.5-9.9) μg/ml
5 | RGRKSSRRKK [Pep-1, RGRKSSRRKK (SEQ ID NO:2)] | – | some low-level hemolytic activity | 2.4 (2.2-2.7) μg/ml | LC90, Free Peptide [2]: 2.23 µg/mL
6 | RGRKSSRRKK-NH2 [Pep-3, RGRKSSRRKK-NH2 (SEQ ID NO:5)] | – | – | 1.2 (1.1-1.2) μg/ml | –
7 | RGRRSSRRKK [Pep-2, RGRRSSRRKK (SEQ ID NO:3)] | – | some low-level hemolytic activity | 1.2 (1.1-1.3) μg/ml | –
8 | RGRRSSRRKK-NH2 [Pep-4, RGRRSSRRKK-NH2 (SEQ ID NO:6)] | – | some low-level hemolytic activity | – | LC90, Free Peptide [2]: 0.15 µg/mL
